Test results: ChEMBL document CHEMBL1147219, “Hyperatomarin, an antibacterial prenylated phloroglucinol from Hypericumatomarium ssp. degenii” (2003)
≈ marks a conversion by molar mass, not a printed value.

Key:
Format in all cases: functional
Bacillus subtilis = assay: Antibacterial activity against Bacillus subtilis ATCC 6633 after 24 hrs by agar dilution method; conditions: ATCC 6633, 24 h
Micrococcus luteus = assay: Antibacterial activity against Micrococcus luteus ATCC 4698 after 24 hrs by agar dilution method; conditions: ATCC 4698, 24 h
Bacillus = assay: Antibacterial activity against Bacillus IP 5832 after 24 hrs by agar dilution method
Staphylococcus aureus = assay: Antibacterial activity against Staphylococcus aureus ATCC 25923 after 24 hrs by agar dilution method; conditions: ATCC 25923, 24 h

MIC (Bacillus subtilis)	MIC (Micrococcus luteus)	MIC (Bacillus)	MIC (Staphylococcus aureus)	Compound
0.39 µg/mL (≈ 0.531 µM)	0.2 µg/mL (≈ 0.273 µM)	0.39 µg/mL (≈ 0.531 µM)	0.2 µg/mL (≈ 0.273 µM)	CC[C@H]1OC(=O)[C@H](C)[C@@H](O[C@H]2C[C@@](C)(OC)[C@@H](O)[C@H](C)O2)[C@H](C)[C@@H](O[C@@H]2O[C@H](C)C[C@H](N(C)C)[C@H]2O)[C@](C)(O)C[C@@H](C)C(=O)[C@H](C)[C@@H](O)[C@]1(C)O [ERYTHROMYCIN]
3.12 µg/mL (≈ 7.79 µM)	1.56 µg/mL (≈ 3.89 µM)	1.56 µg/mL (≈ 3.89 µM)	1.56 µg/mL (≈ 3.89 µM)	CC(C)=CCC[C@@]1(C)[C@H](CC=C(C)C)C[C@@H]2C(=O)C(C(=O)C(C)C)=C(O)[C@H]1C2=O [HYPERATOMARIN]
